Where two headings read alike, the source gives them in different places.
What was measured:
[1] = test system: HCV (J399E) inserted with enhanced green fluorescent protein (EGFP); experiment: microbe, parasite or virus in culture; type: cell-based, Hepatitis C Virus; conditions: for IC50: read-out: IC50 (concentration at which 50% of the replication of HCV was inhibited); for SI (bioactivity selective index): from CC50 and IC50 in Huh7.5.1 cells, SI greater than 2 means effective
Method: The in vitro anti-HCV activity assay of the 2′,2-bis-thiazole non-nucleoside compounds at cellular level was performed by using an anti-HCV activity assay protocol recognized by one skilled in the art.
The variation of the green fluorescence intensity was recorded on a microplate reader and cytotoxicity was measured at the same time, so as to evaluate the influence of the compound on the replication activity of HCV.
(§1) Compounds to be tested were dissolved in DMSO to prepare a stock solution before the test. Upon using, the stock solution was diluted to a desired concentration with DMEM (Dulbecco's Modified Eagle Media, purchased from GibcoBRL company (Life Technologies, Grand Island, N.Y., USA)) containing 10% FBS (fetal bovine serum, purchased from Hyclone company (Logan, Utah, USA)).
Positive control: ribavirin (purchased from Sigma/Aldrich). It was dissolved in DMSO to prepare a stock solution and stored at −20° C. before use, and diluted to a desired concentration upon using.
(§2) Huh7.5.1 cells (10% FBS, DMEM) at 10^5 cells/ml were inoculated on a 96-well plate (Costar 3904) with 100 μl per well. 24 h later, the supernatant of the culture media was sucked out, and 50 μl of virus supernatant with MOI=0.1 was added. 8 h later, 50 μl of the testing compound solution was added and 100 μl of culture media was supplemented. After incubation for 72 h, the supernatant was sucked out, and read on a fluorescent microplate reader (Ex=488 nm, Em=516 nm). Then each well was added with 20 μl of MTT (5 mg/ml) and additional 50 μl of culture media. 4 h later, 100 μl of MTT lysis solution was added. 6 h later, reading was performed at a wavelength of 570 nm.

Huh7.5.1 cells = experiment: in vitro; type: cell-based
Method: (§3) The anti-HCV activity assay was performed by using Huh7.5.1 cells (presented by WUHAN INSTITUTE of VIROLOGY, CHINESE ACADEMY OF SCIENCES) infected by HCV (J399E) inserted with enhanced green fluorescent protein (EGFP). The variation of the green fluorescence intensity was recorded on a microplate reader and cytotoxicity was measured at the same time, so as to evaluate the influence of the compound on the replication activity of HCV.
as §1, with “USA)). The final concentration of DMSO for cell culture was less than 0.25% (V/V, Volume to Volume), and such DMSO concentration would not affect the growth of cells.” for “USA)).”
as §2

in vitro = type: cell-based; conditions: human
Method: as §3
as §1, with “USA)). The final concentration of DMSO for cell culture was less than 0.25% (V/V, Volume to Volume), and such DMSO concentration would not affect the growth of cells.” for “USA)).”
as §2

[2] = HCV (J399E)-EGFP infected Huh7.5.1 cells, MOI=0.1, 72 h incubation
[3] = Hepatitis C virus, Huh-7.5.1, 72 h

Structure (SMILES) | IC50 [1, 2] [µM] | CC50 (Huh7.5.1 cells) [µM] | IC50 [1, 3] [µM] | SI (bioactivity selective index) [1] | CC50 at 72 h (in vitro) [µM]
CC(C)Cc1sc(-c2nccs2)nc1C(N)=O [Compound C267] | 4.9 | > 100 |  |  | 
CCC(=O)c1nc(-c2nccs2)sc1CC(C)C [Compound C280-4] | 8.9 | > 100 |  |  | 
CNC(=O)c1nc(-c2nccs2)sc1CC(C)C [Compound C281] | 13.6 | > 100 |  |  | 
CCC(O)c1nc(-c2nccs2)sc1CC(C)C (centres unmarked) [Compound C282-2] |  |  | 2.8 | >35.7 | > 100
O=C(O)c1nc(-c2nccs2)sc1Cc1ccccc1 [Compound C302] | 25.7 | 67.5 |  |  | 
CCOC(=O)/C=C/c1nc(-c2nccs2)sc1CC(C)C [Compound C322-2] | 9.8 | > 100 |  |  | 
CCOC(=O)CCc1nc(-c2nccs2)sc1CC(C)C [Compound C324-5] | 36.6 | > 100 |  |  | 
CC(C)Cc1sc(-c2nccs2)nc1C(=O)Nc1ccccc1 [Compound C343] | 19.1 | > 100 |  |  | 
CC(C)Cc1sc(-c2nccs2)nc1C(=O)NCc1ccccc1 [Compound C357] |  |  | 2.8 | >11.9 | > 33.3
CC(C)Cc1sc(-c2nccs2)nc1CNC(=O)c1nc(-c2nccs2)sc1CC(C)C [Compound C503] |  |  | 1.4 | >71 | > 100
CC(C)Cc1sc(-c2nccs2)nc1C(=O)NCc1ccc(F)cc1 [Compound W28F] |  |  | 7.5 | 4.9 | 36.9
Cc1cnc(-c2nc(C(=O)NCc3ccc(F)cc3)c(CC(C)C)s2)s1 [Compound W28MF] |  |  | 0.8 | >125 | > 100
NC(=O)c1ncn([C@@H]2O[C@H](CO)[C@@H](O)[C@H]2O)n1 [ribavirin, reference compound] |  |  | 48.3 | 9.3 | 449
